Results published in patent EP3539977B1, “ENZYMES WITH CHLOROGENIC ACID ESTERASE ACTIVITY AND FERULOYL ESTERASE ACTIVITY” (SternEnzym GmbH & Co. KG, priority 2014, dated 2016).
“And” between values parts separate entries of the source, which are not always exact repeats. Identical values can stand only once. Like-named read-outs stand apart in the source and are kept apart here.

Columns and labels:
[1] = biological target: T1, UmChlE (Mycosarcoma maydis, UniProt A0A060S684, P492L); assay: biochemical; type: biochemical, Ustilago maydis; conditions: for Relative esterase activity: 1 h, 37 °C, 50 mM Tris pH 7.5
T1 construct: purification of the chlorogenic acid esterase UmChlE from culture supernatant of U. maydis was accomplished by three complementary separation steps; made in house; host or cells: Ustilago maydis itself (native producer), culture supernatant; Q Sepharose FF, preparative IEF, polyamide column
T1 sequence (A0A060S684 22-585, stated change not applied): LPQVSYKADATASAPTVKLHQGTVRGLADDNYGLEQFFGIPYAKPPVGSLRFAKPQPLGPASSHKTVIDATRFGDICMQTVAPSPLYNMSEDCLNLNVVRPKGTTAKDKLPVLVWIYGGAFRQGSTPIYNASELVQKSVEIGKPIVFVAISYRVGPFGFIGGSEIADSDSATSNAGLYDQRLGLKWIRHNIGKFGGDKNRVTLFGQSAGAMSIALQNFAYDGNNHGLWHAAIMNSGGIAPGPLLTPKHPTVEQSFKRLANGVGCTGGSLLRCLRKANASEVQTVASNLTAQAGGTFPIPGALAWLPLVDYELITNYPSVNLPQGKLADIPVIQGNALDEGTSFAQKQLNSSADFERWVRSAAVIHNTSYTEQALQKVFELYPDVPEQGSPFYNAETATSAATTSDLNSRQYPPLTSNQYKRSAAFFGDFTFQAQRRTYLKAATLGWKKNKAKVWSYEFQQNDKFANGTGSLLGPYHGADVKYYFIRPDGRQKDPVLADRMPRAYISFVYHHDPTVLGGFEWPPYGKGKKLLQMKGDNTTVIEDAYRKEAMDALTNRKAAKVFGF
Description: (§1) Chlorogenic acid esterase activity was determined at 37 °C in 50 mM Tris buffer at pH 7.5 using chlorogenic acid and methyl ferulate as standard substrates, unless otherwise stated. The release of the corresponding free acids was analyzed with HPLC-UV. If appropriate, the hydrolysis of other benzoic and cinnamic acid ester derivatives as well as feruloylated saccharides was measured with the same method. After incubation for one hour the reaction was terminated by doubling the reacting volume with acetonitrile. Samples were centrifuged (15 min, 15.000 × g) before injection to the HPLC (Chromolith Performance RP-18e reverse-phase column, 100 × 4.6 mm, Merck, Darmstadt, Germany). […] Substance elution was detected at 232 nm (benzoic and 3-hydroxybenzoic acid), 254 nm (4-hydroxybenzoic and vanillic acid), 275 nm (cinnamic and gallic acid), 306 nm (p-coumaric acid) and 323 nm (ferulic, caffeic, chlorogenic and sinapic acid) using a Shimadzu UV-Vis detector (SPD-10A VP, Shimadzu Deutschland GmbH, Duisburg, Germany). One unit of enzyme activity was defined as the amount of enzyme releasing one µmοl of free acid per minute under the specified conditions. All measurements were performed at least twice.
Enzyme tolerance to different solvents was investigated in the presence of 50 % (v/v) acetone, acetonitrile, diethyl ether, DMF, DMSO, ethanol, isoamyl alcohol, isobutyl alcohol, isopropanol, methanol, n-hexane, n-heptane, tert-butyl methyl ether or toluene, respectively, in 50 mM Tris buffer pH 7.5 containing 0.7 mM substrate. In an additional experiment, 0.84 mM substrate was used. After incubation (60 min, 37 °C, 900 rpm) the mixture was applied for HPLC analysis as described above. […] The effect of high salt concentrations (0.1 - 3 M NaCl) on enzyme activity was investigated, too.
Various metal ions and enzyme inhibitors were examined for their effect on chlorogenic acid esterase activity (Table 2). […] Hg^2+ reacts with thiol groups and can also reduce disulphide bonds (40). […] Table 2 Effect of metal ions, inhibitors and NaCl on UmChIE activity.
Remaining enzyme activity was measured after 1 h incubation with 1mM, or, in a further experiment, 1.95 mM methyl ferulate and different metal ions as well as inhibitors in concentrations listed above (at 37 °C, 50 mM Tris buffer pH 7.5). Numbers in parentheses are the estimates of the standard error. A sample without additive was used for the calculation of relative enzyme activities. ND: activity not detectable.

[2] = biological target: T1, UmChlE; type: biochemical, Ustilago maydis; conditions: 1 mM (or 1.95 mM) substrate, 1 h, 37 °C, 50 mM Tris pH 7.5, ND = activity not detectable; for Relative esterase activity: chlorogenic acid = 100 %, standard error in parentheses
Description: as §1
Substrate specificity of the UmChlE was determined towards different cinnamate and benzoate esters as well as natural substrates, such as F-A, F-AX and F-AXG, with activity assays as described above. Three mM stock solutions of all substrates were prepared in water.
Purified UmChlE was incubated with 1 mM, or, in a further experiment, 1.95 mM of different substrates for 1 h (at 37 °C, 50 mM Tris buffer pH 7.5). Relative enzyme activities were calculated based on the most preferred substance of the UmChIE: chlorogenic acid which was set to 100 %. Numbers in parentheses are the estimates of the standard error.

[3] = biological target: T2, RsChlE (Rhizoctonia solani, UniProt A0A1D0BQV8); assay: Substrate specificity of purified RsChlE; type: biochemical; conditions: 1 mM (or 1.95 mM) substrate, 1 h, 30 °C, 50 mM Bis-Tris pH 6.0
T2 sequence (A0A1D0BQV8 39-563): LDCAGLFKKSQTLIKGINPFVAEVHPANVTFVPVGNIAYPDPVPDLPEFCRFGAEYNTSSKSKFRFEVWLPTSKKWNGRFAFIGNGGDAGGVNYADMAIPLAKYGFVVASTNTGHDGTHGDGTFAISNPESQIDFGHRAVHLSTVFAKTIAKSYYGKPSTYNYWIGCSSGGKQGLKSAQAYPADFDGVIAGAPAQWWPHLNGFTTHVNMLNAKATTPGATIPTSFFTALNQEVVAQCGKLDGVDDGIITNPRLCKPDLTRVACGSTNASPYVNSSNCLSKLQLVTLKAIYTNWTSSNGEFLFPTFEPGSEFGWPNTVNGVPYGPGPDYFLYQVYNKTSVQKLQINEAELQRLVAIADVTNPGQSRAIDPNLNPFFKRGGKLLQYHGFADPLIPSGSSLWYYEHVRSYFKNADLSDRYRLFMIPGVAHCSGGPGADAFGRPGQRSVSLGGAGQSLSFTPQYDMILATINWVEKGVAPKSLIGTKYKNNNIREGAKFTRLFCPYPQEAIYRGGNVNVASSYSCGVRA
Description: as §1
After purification of the recombinant RsChlE from the culture supernatant of Pichia pastoris with Ni-NTA, the enzyme was biochemically characterized. The experiments were performed like for UmChlE. pH and temperature optimums were analyzed. […] Table 4: Substrate specificity of purified RsChIE.
Purified RsChlE was incubated with 1 mM, or in an alternative experiment, 1.95 mM of different substrates for 1 h (at 30 °C, 50 mM Bis-Tris buffer pH 6.0). […] Numbers in parentheses are the estimates of the standard error.

[4] = 5 mM additive, 1 mM (or 1.95 mM) methyl ferulate, without additive = 100 %, standard error in parentheses, ND = activity not detectable

O=S(=O)([O-])[O-].O=S(=O)([O-])[O-].O=S(=O)([O-])[O-].[Al+3].[Al+3] [Al2(SO4)3]
Relative esterase activity [1, 4]: 53 (0.12) %
Relative esterase activity ([1]; 5 mM additive, 1 mM (or 1.95 mM) methyl ferulate, without additive = 100 %, standard error in parentheses, ND = activity not detectable, listed as Al^3+): 50 - 76%

[Ca+2].[Cl-].[Cl-] [CaCl2]
Relative esterase activity [1, 4]: 103 (2.76) %

[Cl-].[Cl-].[Co+2] [CoCl2]
Relative esterase activity [1, 4]: 67 (0.11) %
Relative esterase activity ([1]; 5 mM additive, 1 mM (or 1.95 mM) methyl ferulate, without additive = 100 %, standard error in parentheses, ND = activity not detectable, listed as Co^2+): 50 - 76%

O=[N+]([O-])[O-].O=[N+]([O-])[O-].O=[N+]([O-])[O-].[Cr+3] [Cr(NO3)3]
Relative esterase activity [1, 4]: 69 (3.54) %
Relative esterase activity ([1]; 5 mM additive, 1 mM (or 1.95 mM) methyl ferulate, without additive = 100 %, standard error in parentheses, ND = activity not detectable, listed as Cr^3+): 50 - 76%

[Cl-].[Cs+] [CsCl]
Relative esterase activity [1, 4]: 105 (1.21) %

O=[N+]([O-])[O-].O=[N+]([O-])[O-].[Cu+2] [Cu(NO3)2]
Relative esterase activity [1, 4]: 96 (0.53) %

COc1cc(/C=C/C(=O)OC[C@@H]2OC(O)[C@H](O)[C@H]2O)ccc1O (stereo partly drawn) [F-A, 5-O-trans-feruloyl-L-arabinofuranose]
Specific esterase activity [2]: 2.0 U mg^-1 and 2.06 U mg^-1
Specific activity [3]: 4.48 U/mg

COc1cc(/C=C/C(=O)OC[C@@H]2OC(O)[C@H](O[C@@H]3OC[C@@H](O)[C@H](O)[C@H]3O[C@@H]3O[C@@H](CO)[C@@H](O)[C@@H](O)[C@@H]3O)[C@H]2O)ccc1O (stereo partly drawn) [F-AXG, α-L-galactopyranosyl-(1→2)-β-D-xylopyranosyl-(1→2)-5-O-trans-feruloyl-L-arabinofuranose]
Specific esterase activity [2]: 0.9 U mg^-1 and 0.92 U mg^-1
Specific activity [3]: 3.66 U/mg

[Cl][Fe]([Cl])[Cl] [FeCl3]
Relative esterase activity [1, 4]: 66 (0.65) %

O=S(=O)([O-])[O-].[Fe+2] [FeSO4]
Relative esterase activity [1, 4]: 102 (0.50) %

CC(=O)[O-].CC(=O)[O-].[Hg+2] [HgAc2]
Relative esterase activity [1, 4]: complete loss of enzyme activity

[Cl-].[K+] [KCI]
Relative esterase activity [1, 4]: 108 (0.57) %

[Cl-].[Li+] [LiCI]
Relative esterase activity [1, 4]: 106 (1.39) %

[Cl-].[Cl-].[Mg+2] [MgCl2]
Relative esterase activity [1, 4]: 106 (0. 53) %

O=S(=O)([O-])[O-].[Mn+2] [MnSO4]
Relative esterase activity [1, 4]: 90 (0.09) %
Relative esterase activity ([1]; 5 mM additive, 1 mM (or 1.95 mM) methyl ferulate, without additive = 100 %, standard error in parentheses, ND = activity not detectable, listed as Mn^2+): 90%

[Cl-].[Na+] [NaCl]
Relative esterase activity ([1]; 100 mM additive, methyl ferulate): 105 (0.02) %
Relative esterase activity ([1]; 500 mM additive, methyl ferulate): 121 (0.01) %
Relative esterase activity ([1]; 1000 mM additive, methyl ferulate): 125 (0.02) %
Relative esterase activity ([1]; 2000 mM additive, methyl ferulate): 142 (0.06) %
Relative esterase activity ([1]; 3000 mM (3 M) additive, methyl ferulate): 150% and 150 (0.04) %

O=S(=O)([O-])[O-].[Ni+2] [NiSO4]
Relative esterase activity [1, 4]: 108 (0.87) %

CCCCCCCCCCCCOS(=O)(=O)O [SDS]
inhibition at 5000 µM ([1]; read-out: enzyme activity was inhibited): 41%

O=[N+]([O-])[O-].O=[N+]([O-])[O-].[Sr+2] [SrNO3]
Relative esterase activity [1, 4]: 104 (0,18) %

O=S(=O)([O-])[O-].[Zn+2] [ZnSO4]
Relative esterase activity [1, 4]: 76 (1.26) %
Relative esterase activity ([1]; 5 mM additive, 1 mM (or 1.95 mM) methyl ferulate, without additive = 100 %, standard error in parentheses, ND = activity not detectable, listed as Zn^2+): 50 - 76%

CCOC(=O)C=Cc1ccccc1 [ethyl cinnamate]
Specific activity [3]: 0.91 U/mg

CCOC(=O)/C=C/c1ccc(O)c(OC)c1 [ethyl ferulate]
Specific esterase activity [2]: 0.78 U mg^-1
Specific activity [3]: 3.60 U/mg

COC(=O)/C=C/c1ccc(O)c(O)c1 [methyl caffeate]
Specific esterase activity [2]: 0.49 U mg^-1
Specific activity [3]: 4.61 U/mg

COC(=O)C=Cc1ccccc1 [methyl cinnamate]
Specific activity [3]: 2.10 U/mg

COC(=O)/C=C/c1cc(OC)c(O)c(OC)c1 [methyl sinapate]
Relative esterase activity [2]: no
Relative esterase activity ([2]; listed as MSA): total loss of activity
